Where a name gives a salt, the structure may show the parent alone.
How the values were obtained:
platelet aggregation = settings: cited from earlier work; for Platelet aggregation inhibiting activity of the enantiomers: as described in EP 281459
[1] = versus Aspirin; cited from earlier work
[2] = Form-I obtained by the ethyl acetate process

COC(=O)C(c1ccccc1Cl)N1CCc2sccc2C1 (single isomer, unassigned) [levo-rotatory isomer]
Platelet aggregation inhibiting activity of the enantiomers (platelet aggregation): less active

COC(=O)[C@H](c1ccccc1Cl)N1CCc2sccc2C1 [Clopidogrel hydrogen sulfate, bisulfate of methyl-(+)-(S)-α-(2-chlorophenyl)-4,5,6,7-tetrahydrothieno[3,2,-c]pyridine-5-acetate]
Platelet aggregation inhibiting activity of the enantiomers (platelet aggregation): excellent platelet aggregation inhibiting activity

COC(=O)[C@H](c1ccccc1Cl)N1CCc2sccc2C1 [Clopidogrel]
Effectiveness in blocking platelet aggregation compared with Aspirin (platelet aggregation; recent studies, versus Aspirin): more effective in blocking platelet aggregation than Asprin | Gastrointestinal bleeding compared with Aspirin [1]: much less gastrointestinal bleeding than Asprin

COC(=O)[C@H](c1ccccc1Cl)N1CCc2sccc2C1 [Form-I, Methyl-(+)-(S)-α-(2-Chlorophenyl)-6,7-dihydrothieno[3,2-c]pyridine-5(4H)-acetate bisulfate Form-I]
Stability of the crystal form / conversion to other forms [2]: stable and does not convert to any other forms
